Assay results as given in patent US20140363838A1, “MICROPERFUSION IMAGING PLATFORM” (William Marsh Rice University, priority 2013, published 2014).
Values after ≈ are worked out from the molar mass of the structure shown.

Experiments:
MDA-MB-468 cells [1] = assay: live/dead (calcein-AM/EthD-1) viability assay, microcarrier format on pBNC device; format: cell-based; settings: Homo sapiens, BNC assays, microcarriers, 24 hour doxorubicin exposure, composite of 3 assays, read-out: Computed IC50 of composite dose curve (percent viability from EthD-1 intensity)
Protocol: Microcarriers cultured with MDA-MB-468 cells were harvested after 5-6 days of static culture with regular media exchanges every 48 hours. Doxorubicin solutions were prepared in fresh, warm media in volumes of 1 mL and added to aliquots of about 200 μL microcarriers and statically incubated for 24 hours at 37° C. Each aliquot was transferred to a sterile 2 ml micro-centrifuge tube where the microcarriers were allowed to settle. After supernatant was removed, microcarriers were rinsed in warm PBS, and incubated in fresh media at 37° C. until assayed. Negative control microcarriers were prepared by replacing this media with 70% methanol and incubating at room temperature for 30 minutes, and then suspended in PBS.
For each assay performed in triplicate (on a prior card embodiment with outlets at the bottom of the card), 4 negative control microcarriers were placed in the 4 outer corners of a 3×4 array of micro-containers through careful manipulation with precision forceps. […]
Images were acquired using a monochrome DVC camera connected to an Olympus BX-2 microscope (Center Valley, Pa.) with a 4× objective at a single focal plane at the top of the microcarriers. […] Intensities for both FITC and TxRed channels were measured separately, using a custom written ImageJ macro that extracts the average of the maxima of a series of line profile scans down each microcarrier. […]

MDA-MB-468 cells [2] = assay: live/dead (calcein-AM/EthD-1) viability assay, monolayer 96-well plate, fluorescence plate reader; format: cell-based; settings: Homo sapiens, 96-well plate assays, 24 hour doxorubicin exposure, composite of 3 assays, read-out: Computed IC50 of composite dose curve (percent viability from EthD-1 intensity)
Protocol: Negative and positive controls were included as columns in each plate for the 96-well plate assays. Four negative control microcarriers were included in each assay on the BNC platform and one positive control assay served as the positive control for determining percent viability. Dose curves were plotted using a 5-parameter curve fitting algorithm in MATLAB (MATHWORKS®).
An equivalent viability assay was performed using standard 96-well plates for comparative purposes. Cells were seeded on 3, 96-well plates (CORNING®) at a final seeding density of about 10,000 cells per well. Plates were incubated at 37° C., 5% CO2 for 72 hours before media was exchanged for doxorubicin-containing media and incubated for an additional 24 hours. Negative control columns on each plate were prepared by replacing media with 70% methanol and incubating for 30 minutes at 37° C. Before imaging, all media was removed and cells were washed with warm PBS and replaced with a calcein-AM/EthD-1 solution with the same concentration as in the pBNC assay. […] A single point scan was performed on each well at excitation/emission wavelengths (nm) of 485/530 for calcein-AM and 530/645 for EthD-1.

[3] = tested on: cells on spheroid microcarrier; assay: doxorubicin uptake, chip versus plate/static, by Z depth; format: cell-based
MDA-MB-468 cells [4] = assay: equivalent nuclear assay (fixed cells, DAPI staining) in monolayer
MDA-MB-468 cells [5] = assay: nuclear analysis (fixed cells, DAPI staining) of microcarriers on pBNC platform

IC50 (MDA-MB-468 cells [1]): 4 µg/mL (≈ 7.36 µM) | IC50 (MDA-MB-468 cells [2]): 10 µg/mL (≈ 18.4 µM)
Structure (SMILES): COc1cccc2c1C(=O)c1c(O)c3c(c(O)c1C2=O)C[C@@](O)(C(=O)CO)C[C@@H]3O[C@H]1C[C@H](N)[C@H](O)[C@H](C)O1 [doxorubicin]
doxorubicin penetration into spheroid microcarrier cell layers (z-slices) ([3]; 2 hours incubation, observed for both chip and plate platforms): only able to penetrate through a few outer layers of cells | doxorubicin uptake, chip compared with static ([3]; chip vs static, FIG. 14): highly comparable | cells remaining attached (identified nuclear counts) (MDA-MB-468 cells [4]; 100 μg/mL doxorubicin, 24 hour exposure, monolayer): no monolayer cells remained attached | average uncorrected nuclear compactness (MDA-MB-468 cells [4]; monolayer format, increasing doxorubicin concentration): increase in the average uncorrected compactness | average nuclear area (MDA-MB-468 cells [4]; monolayer platform, across 10.000-fold doxorubicin concentration range): increases for low concentrations of doxorubicin and decreases for higher concentrations | distribution of average DAPI intensity of nuclei (MDA-MB-468 cells [4]; monolayer platform, high doxorubicin concentrations (10 μg/mL)): shift in the distribution of DAPI intensities towards lower intensities | cells remaining attached (identified nuclear counts) (MDA-MB-468 cells [5]; 100 μg/mL doxorubicin, 24 hour exposure, Cytodex I microcarriers): some cells remained attached | total cell population (DAPI-stained nuclei / live-dead cell counting) (MDA-MB-468 cells [5]; increasing doxorubicin concentrations, both counting methods): decrease in total cell population | average uncorrected nuclear compactness (MDA-MB-468 cells [5]; microcarrier format, increasing doxorubicin concentration): increase in the average uncorrected compactness | average nuclear area (MDA-MB-468 cells [5]; microcarrier platform, across 10.000-fold doxorubicin concentration range): increases for low concentrations of doxorubicin and decreases for higher concentrations | distribution of average DAPI intensity of nuclei (MDA-MB-468 cells [5]; microcarrier platform, high doxorubicin concentrations (10 μg/mL)): shift in the distribution of DAPI intensities towards lower intensities
